Where “and” joins values, the source holds several entries; their conditions need not be identical. Identical values can stand only once.
What was measured:
[1] = system: cellooligosaccharide; assay type: cell-based
[2] = system: enzymatic activity for fatty acid degradation; conditions: cellobiose-added feedstuff; cited from earlier work
[3] = system: enzymatic activity for fatty acid synthesis; conditions: cellobiose-added feedstuff; cited from earlier work
[4] = cellobiose-added high sucrose food for 4 weeks; versus control rats; cited from earlier work

Compound	Amount of produced Lactic acid [1]	enzymatic activity for fatty acid degradation [2]	enzymatic activity for fatty acid synthesis [3]	body fat ratio [4]	levels of total cholesterol and neutral fat [4]
Bifidobacterium	1.01 mM and 1.08 mM	–	–	–	–
O=C[C@H](O)[C@@H](O)[C@H](O[C@@H]1O[C@H](CO)[C@@H](O)[C@H](O)[C@H]1O)[C@H](O)CO [cellobiose]	–	increased	inhibited	reduced	reduced

From patent publication US20090280098A1 (priority 2006, published 2009)
